In ChEMBL document CHEMBL5042510, “Structure-Guided Discovery of Aminoquinazolines as Brain-Penetrant and Selective LRRK2 Inhibitors” (J Med Chem, 2022):
One block for each compound: values may come before it.

How the values were obtained:
[1] = Intrinsic clearance in Wistar Han rat at 0.1 mg/kg, iv by LC-MS/MS analysis; format: ADME, organism-based; conditions: in vivo
[2] = Intrinsic clearance in rat hepatocytes at 0.3 uM incubated for 90 mins by LC/MS/MS analysis; format: ADME, cell-based, Hepatocyte; conditions: read-out: CLH
[3] = Intrinsic clearance in human hepatocytes at 0.3 uM incubated for 90 mins by LC/MS/MS analysis; format: ADME, cell-based, Hepatocyte; conditions: read-out: CLH
[4] = biological target: Leucine-rich repeat serine/threonine-protein kinase 2 (Homo sapiens, UniProt Q5S007, G2019S); test: Inhibition of recombinant N-terminal GST-fused LRRK2 […] mutant (970 to 2527 residues) (unknown origin) preincubated with enzyme for 15 mins followed by fluorescein-labeled LRRKtide peptide substrate and ATP addition for 90 mins by TR-FRET assay
[5] = biological target: Voltage-gated inwardly rectifying potassium channel KCNH2 (Homo sapiens, UniProt Q12809); test: Inhibition of human ERG by voltage clamp assay; format: toxicity
[6] = tested on: Leucine-rich repeat serine/threonine-protein kinase 2 (Homo sapiens), Q5S007 [G2019S]; test: Inhibition of LRRK2 […] mutant expressed in human SH-SY5Y cells assessed as unbound concentration required for inhibition of phosphorylation of LRRK2 at Ser935 residue incubated for 90 mins by MSD assay; format: cell-based
[7] = MRT in Wistar Han rat at 0.1 mg/kg, iv by LC-MS/MS analysis; format: ADME, organism-based; conditions: in vivo
[8] = Total plasma clearance in Wistar Han rat at 0.1 mg/kg, iv by LC-MS/MS analysis; format: ADME, organism-based
[9] = tested on: rat Mdr1a (P-gp); test: Efflux ratio of apparent permeability across basolateral to apical side over apical to basolateral side in rat Mdr1a-transfected pig LLC-PK1 cells at 0.1 to 1 uM measured after 3 hrs by LC/MS/MS analysis; format: ADME, cell-based, Sus scrofa; conditions: dose 0.1-1 µM
[10] = tested on: mouse Bcrp; test: Efflux ratio of apparent permeability across basolateral to apical over apical to basolateral side in mouse Bcrp-transfected dog MDCK-II cells at 0.1 to 1 uM measured after 3 hrs by LC/MS/MS analysis; format: ADME, cell-based, Canis lupus familiaris; conditions: dose 0.1-1 µM
[11] = tested on: rat Mdr1a (P-gp); test: Apparent permeability from apical to basolateral side in rat Mdr1a-transfected pig LLC-PK1 cells at 0.1 to 1 uM measured after 3 hrs by LC/MS/MS analysis; format: ADME, cell-based, Sus scrofa; conditions: dose 0.1-1 µM
[12] = biological target: Leucine-rich repeat serine/threonine-protein kinase 2 (Homo sapiens) (UniProt Q5S007); test: Ex vivo inhibition of LRRK2 in human PBMC assessed as unbound concentration required for reduction in LRRK2 phosphorylation at Ser935 residue incubated for 90 mins by MSD assay; format: cell-based
[13] = Dissociation constant, pKa of the compound; format: physicochemical
[14] = Lipophilicity, logD of the compound by HPLC analysis; format: physicochemical
[15] = Total plasma clearance in Beagle dog at 2 mg/kg, iv by LC-MS/MS analysis; format: ADME, organism-based, Canis lupus familiaris
[16] = MRT in Wistar Han rat at 2 mg/kg, iv by LC-MS/MS analysis; format: ADME, organism-based; conditions: in vivo
[17] = Oral bioavailability in Wistar Han rat at 10 mg/kg by LC-MS/MS analysis; format: ADME, organism-based; conditions: in vivo
[18] = Oral bioavailability in Beagle dog by LC-MS/MS analysis; format: ADME, organism-based, Canis lupus familiaris; conditions: in vivo
[19] = Total plasma clearance in Wistar Han rat at 2 mg/kg, iv by LC-MS/MS analysis; format: ADME, organism-based
[20] = MRT in Beagle dog at 2 mg/kg, iv by LC-MS/MS analysis; format: ADME, organism-based, Canis lupus familiaris; conditions: in vivo
[21] = Intrinsic clearance in Wistar Han rat at 2 mg/kg, iv by LC-MS/MS analysis; format: ADME, organism-based; conditions: in vivo
[22] = Unbound brain-to-plasma concentration ratio in rat at 2.5 uM incubated for 4 hrs by equilibrium dialysis method; format: ADME, cell-free; conditions: brain and plasma (unbound), read-out: K(p,uu,brain)
[23] = Intrinsic clearance in dog hepatocytes at 0.3 uM incubated for 90 mins by LC/MS/MS analysis; format: ADME, cell-based, Canis lupus familiaris, Hepatocyte; conditions: read-out: CLH
[24] = Intrinsic clearance in Beagle dog at 2 mg/kg, iv by LC-MS/MS analysis; format: ADME, organism-based, Canis lupus familiaris; conditions: in vivo

Chain of Leucine-rich repeat serine/threonine-protein kinase 2 (Q5S007 whole entry G2019S, the tested form may be a part): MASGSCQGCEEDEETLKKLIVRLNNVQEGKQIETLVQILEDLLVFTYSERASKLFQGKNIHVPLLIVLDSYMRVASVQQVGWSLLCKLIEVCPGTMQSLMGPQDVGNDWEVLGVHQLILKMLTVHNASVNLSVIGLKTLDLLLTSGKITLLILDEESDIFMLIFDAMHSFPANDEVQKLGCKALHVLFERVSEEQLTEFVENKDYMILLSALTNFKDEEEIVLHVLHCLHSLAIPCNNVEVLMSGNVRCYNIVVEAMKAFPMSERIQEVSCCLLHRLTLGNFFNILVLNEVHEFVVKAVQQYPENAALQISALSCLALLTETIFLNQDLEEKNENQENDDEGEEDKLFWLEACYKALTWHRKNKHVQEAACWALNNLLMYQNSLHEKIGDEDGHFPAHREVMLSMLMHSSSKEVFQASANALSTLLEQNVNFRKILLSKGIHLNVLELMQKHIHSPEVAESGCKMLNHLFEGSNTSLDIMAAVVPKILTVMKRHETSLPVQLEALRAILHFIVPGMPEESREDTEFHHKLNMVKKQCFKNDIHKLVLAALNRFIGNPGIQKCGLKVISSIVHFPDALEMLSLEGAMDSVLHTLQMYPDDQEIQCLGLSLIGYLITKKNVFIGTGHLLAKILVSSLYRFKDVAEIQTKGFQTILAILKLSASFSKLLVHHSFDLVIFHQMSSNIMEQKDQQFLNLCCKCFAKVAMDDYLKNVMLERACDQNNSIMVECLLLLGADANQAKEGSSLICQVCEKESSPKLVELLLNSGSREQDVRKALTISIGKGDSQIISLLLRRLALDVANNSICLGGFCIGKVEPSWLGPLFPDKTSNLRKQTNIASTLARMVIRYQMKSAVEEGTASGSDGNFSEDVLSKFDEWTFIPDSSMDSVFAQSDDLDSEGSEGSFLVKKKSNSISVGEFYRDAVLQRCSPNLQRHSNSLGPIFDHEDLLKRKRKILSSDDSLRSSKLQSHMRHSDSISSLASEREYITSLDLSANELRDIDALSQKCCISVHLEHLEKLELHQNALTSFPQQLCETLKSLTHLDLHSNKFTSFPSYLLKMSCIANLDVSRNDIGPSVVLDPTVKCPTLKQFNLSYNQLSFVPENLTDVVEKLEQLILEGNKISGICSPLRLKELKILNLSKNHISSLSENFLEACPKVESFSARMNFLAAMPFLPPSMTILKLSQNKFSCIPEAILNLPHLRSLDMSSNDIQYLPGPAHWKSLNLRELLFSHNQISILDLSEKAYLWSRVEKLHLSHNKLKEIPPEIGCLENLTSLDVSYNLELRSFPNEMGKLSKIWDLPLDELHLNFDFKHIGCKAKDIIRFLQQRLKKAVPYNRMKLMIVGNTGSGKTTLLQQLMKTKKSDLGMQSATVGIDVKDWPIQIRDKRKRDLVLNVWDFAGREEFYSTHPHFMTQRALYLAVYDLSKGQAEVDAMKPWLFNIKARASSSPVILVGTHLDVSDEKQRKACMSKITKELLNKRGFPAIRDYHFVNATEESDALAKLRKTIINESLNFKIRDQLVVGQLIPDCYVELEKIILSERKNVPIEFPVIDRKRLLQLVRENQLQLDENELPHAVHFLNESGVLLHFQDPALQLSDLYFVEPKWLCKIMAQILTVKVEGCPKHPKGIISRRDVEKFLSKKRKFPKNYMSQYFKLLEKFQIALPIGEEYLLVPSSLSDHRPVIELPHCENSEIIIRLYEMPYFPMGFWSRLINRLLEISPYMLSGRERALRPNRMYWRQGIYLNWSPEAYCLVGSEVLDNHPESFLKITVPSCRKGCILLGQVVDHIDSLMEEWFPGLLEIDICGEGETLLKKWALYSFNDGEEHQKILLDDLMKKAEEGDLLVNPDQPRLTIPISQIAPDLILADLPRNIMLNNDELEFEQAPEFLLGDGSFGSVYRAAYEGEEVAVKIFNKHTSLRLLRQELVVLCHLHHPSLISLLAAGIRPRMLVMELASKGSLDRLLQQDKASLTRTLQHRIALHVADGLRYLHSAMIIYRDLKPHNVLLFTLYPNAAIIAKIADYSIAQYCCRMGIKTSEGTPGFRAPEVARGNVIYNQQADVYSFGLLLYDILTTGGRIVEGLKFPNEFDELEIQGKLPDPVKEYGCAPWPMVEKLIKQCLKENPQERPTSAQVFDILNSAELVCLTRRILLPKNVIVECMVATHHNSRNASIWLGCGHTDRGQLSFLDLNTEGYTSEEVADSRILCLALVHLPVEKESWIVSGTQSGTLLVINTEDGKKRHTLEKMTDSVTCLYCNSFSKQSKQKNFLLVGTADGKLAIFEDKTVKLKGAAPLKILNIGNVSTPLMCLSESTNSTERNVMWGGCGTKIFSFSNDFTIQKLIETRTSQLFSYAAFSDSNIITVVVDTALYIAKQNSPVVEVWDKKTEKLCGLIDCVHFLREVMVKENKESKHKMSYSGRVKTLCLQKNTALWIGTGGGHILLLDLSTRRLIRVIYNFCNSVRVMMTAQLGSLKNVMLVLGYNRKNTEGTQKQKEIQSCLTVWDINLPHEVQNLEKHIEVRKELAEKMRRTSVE
Chain of Leucine-rich repeat serine/threonine-protein kinase 2 (Homo sapiens), Q5S007 [G2019S] (Q5S007 whole entry G2019S): as the sequence (Q5S007 whole entry G2019S, the tested form may be a part) above
Chain of Voltage-gated inwardly rectifying potassium channel KCNH2 (Q12809 whole entry): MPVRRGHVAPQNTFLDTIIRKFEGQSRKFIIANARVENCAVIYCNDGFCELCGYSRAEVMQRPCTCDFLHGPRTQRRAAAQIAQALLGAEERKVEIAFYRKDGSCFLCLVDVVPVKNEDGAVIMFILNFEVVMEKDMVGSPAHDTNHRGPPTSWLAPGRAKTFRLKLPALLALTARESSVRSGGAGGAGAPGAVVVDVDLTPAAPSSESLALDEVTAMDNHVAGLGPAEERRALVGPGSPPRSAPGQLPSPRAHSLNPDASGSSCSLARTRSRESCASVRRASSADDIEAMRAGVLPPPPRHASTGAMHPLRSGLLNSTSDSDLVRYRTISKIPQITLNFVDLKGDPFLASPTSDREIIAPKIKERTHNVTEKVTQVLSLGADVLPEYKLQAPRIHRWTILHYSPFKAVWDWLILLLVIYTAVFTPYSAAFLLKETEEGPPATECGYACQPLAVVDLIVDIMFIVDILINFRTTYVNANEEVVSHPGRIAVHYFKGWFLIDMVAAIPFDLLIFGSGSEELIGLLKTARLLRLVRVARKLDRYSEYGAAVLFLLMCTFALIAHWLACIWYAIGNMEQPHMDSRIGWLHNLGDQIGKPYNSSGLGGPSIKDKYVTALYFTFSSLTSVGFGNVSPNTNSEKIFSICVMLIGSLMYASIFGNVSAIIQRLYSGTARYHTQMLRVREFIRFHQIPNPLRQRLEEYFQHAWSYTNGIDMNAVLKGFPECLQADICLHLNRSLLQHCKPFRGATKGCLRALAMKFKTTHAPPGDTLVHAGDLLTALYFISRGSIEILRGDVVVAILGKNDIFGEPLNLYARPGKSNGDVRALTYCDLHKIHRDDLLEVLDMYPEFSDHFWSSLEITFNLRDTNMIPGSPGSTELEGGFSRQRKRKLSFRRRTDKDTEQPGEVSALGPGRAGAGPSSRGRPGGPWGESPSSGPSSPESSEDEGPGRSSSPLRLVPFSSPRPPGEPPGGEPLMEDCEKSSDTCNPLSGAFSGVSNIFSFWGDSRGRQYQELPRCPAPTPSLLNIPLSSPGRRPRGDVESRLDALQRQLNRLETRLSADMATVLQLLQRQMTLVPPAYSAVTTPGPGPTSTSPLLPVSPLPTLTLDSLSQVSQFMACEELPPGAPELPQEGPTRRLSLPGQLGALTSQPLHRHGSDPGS
Chain of Leucine-rich repeat serine/threonine-protein kinase 2 (Homo sapiens) (Q5S007 whole entry): as the sequence (Q5S007 whole entry G2019S, the tested form may be a part) above, with S2019G counted along it

CL [1]: 2494 mL/min/kg
CLint scaled at 0.3 µM [2]: 2640 mL/min/kg
CLint scaled at 0.3 µM [3]: 471 mL/min/kg
IC50 [4]: < 0.0006 µM
fIC50 [6]: 2.5 nM
MRT [7]: 3.3 h
clearance [8]: 22 mL/min/kg
Compound: FC1CN(C2CCOC2)CCC1c1cc2nc(Nc3cnn(C4CC4(F)F)c3Cl)ncc2cc1Cl (configuration not stated)
IC50 [5]: 35 µM

logD [14]: 1.4
CL [1]: 26 mL/min/kg
CLint scaled at 0.3 µM [2]: 17 mL/min/kg
CLint scaled at 0.3 µM [3]: < 6 mL/min/kg
IC50 [4]: < 0.0006 µM
efflux ratio at 3 h, up to 1 µM [9]: 35
Papp A→B at 3 h, up to 1 µM [11]: 27 ×10⁻⁶ cm/s
fIC50 [6]: 3.2 nM
MRT [7]: 1.6 h
clearance [8]: 9 mL/min/kg
Compound: Cc1c(Nc2ncc3ccc(N4C(=O)OC[C@@H]4C)cc3n2)cnn1C1CCOCC1

CL [1]: 1545 mL/min/kg
CLint scaled at 0.3 µM [2]: 210 mL/min/kg
CLint scaled at 0.3 µM [3]: 186 mL/min/kg
IC50 [4]: < 0.0006 µM
efflux ratio at 3 h, up to 1 µM [9]: 1.2
Papp A→B at 3 h, up to 1 µM [11]: 31 ×10⁻⁶ cm/s
fIC50 [6]: 6.1 nM
MRT [7]: 2.7 h
clearance [8]: 20 mL/min/kg
Compound: FC1CN(C2COC2)CCC1c1cc2nc(Nc3cnn(C4CC4(F)F)c3Cl)ncc2cc1Cl (configuration not stated)
IC50 [5]: 18.3 µM

Second part, the compound before the results:

Compound: Clc1cc2cnc(Nc3cnn(C4CC4)c3Cl)nc2cc1C1CCN(C2COC2)CC1
CL [1]: 1025 mL/min/kg
CLint scaled at 0.3 µM [2]: 464 mL/min/kg
CLint scaled at 0.3 µM [3]: 57 mL/min/kg
IC50 [4]: < 0.0006 µM
IC50 [5]: 4.6 µM
efflux ratio at 3 h, up to 1 µM [9]: 0.5
efflux ratio at 3 h, up to 1 µM [10]: 0.6
Papp A→B at 3 h, up to 1 µM [11]: 26 ×10⁻⁶ cm/s
fIC50 [6]: 4.8 nM
MRT [7]: 1.5 h
clearance [8]: 19 mL/min/kg

Compound: F[C@@H]1CNCC[C@H]1c1cc2nc(Nc3cnn([C@@H]4CC4(F)F)c3Cl)ncc2cc1Cl
CL [1]: 1890 mL/min/kg
fIC50 [12]: 9 nM
IC50 [5]: 0.57 µM
pKa [13]: 7.79
MRT [7]: 1.8 h
clearance [8]: 22 mL/min/kg

Compound: Cc1c(Nc2ncc3cccc(C4CC4)c3n2)cnn1C1CCOCC1
logD [14]: 2.7
CL [1]: 1219 mL/min/kg
CLint scaled at 0.3 µM [2]: 898 mL/min/kg
CLint scaled at 0.3 µM [3]: 162 mL/min/kg
IC50 [4]: 0.001 µM
efflux ratio at 3 h, up to 1 µM [9]: 0.65
Papp A→B at 3 h, up to 1 µM [11]: 36 ×10⁻⁶ cm/s
fIC50 [6]: 31 nM
MRT [7]: 0.6 h
clearance [8]: 34 mL/min/kg

Compound: Cc1c(Nc2ncc3cc(Cl)c(C4CCN(C5COC5)CC4)cc3n2)cnn1C1CC1
clearance [15]: 23 mL/min/kg
MRT [16]: 2.1 h
CLint scaled at 0.3 µM [2]: 457 mL/min/kg
CLint scaled at 0.3 µM [3]: 49 mL/min/kg
bioavailability [17]: 26%
bioavailability [18]: 38%
clearance [19]: 14 mL/min/kg
MRT [20]: 2 h
CL [21]: 260 mL/min/kg
IC50 [4]: 0.00065 µM
IC50 [5]: 15 µM
efflux ratio at 3 h, up to 1 µM [9]: 3
efflux ratio at 3 h, up to 1 µM [10]: 4.2
Papp A→B at 3 h, up to 1 µM [11]: 35 ×10⁻⁶ cm/s
Kp uu at 4 h, 2.5 µM [22]: 0.2
fIC50 [6]: 9.9 nM
CLint scaled at 0.3 µM [23]: 294 mL/min/kg
CL [24]: 477 mL/min/kg

Compound: Cc1c(Nc2ncc3ccc(C4(C#N)CC45CC5)cc3n2)cnn1C1CCOCC1 (configuration not stated)
IC50 [4]: < 0.0006 µM
efflux ratio at 3 h, up to 1 µM [9]: 7.2
Papp A→B at 3 h, up to 1 µM [11]: 34 ×10⁻⁶ cm/s
fIC50 [6]: 6.9 nM

Compound: FC1CN(C2COCC2F)CCC1c1cc2nc(Nc3cnn(C4CC4(F)F)c3Cl)ncc2cc1Cl (configuration not stated)
CL [1]: 2771 mL/min/kg
CLint scaled at 0.3 µM [2]: 956 mL/min/kg
CLint scaled at 0.3 µM [3]: 720 mL/min/kg
IC50 [4]: < 0.0006 µM
IC50 [5]: 8.6 µM
efflux ratio at 3 h, up to 1 µM [9]: 1.6
Papp A→B at 3 h, up to 1 µM [11]: 23 ×10⁻⁶ cm/s
fIC50 [6]: 1.9 nM
MRT [7]: 4.8 h
clearance [8]: 12 mL/min/kg
